From ChEMBL document CHEMBL5137042, “Tetrahydropyridin-4-ylpicolinoylglycines as novel and orally active prolyl hydroxylase 2 (PHD2) inhibitors for the treatment of renal anemia” (Eur J Med Chem, 2022)
Values belong to the compound of their own block, whether it stands above or below them. Active and inactive are the calls of the source. The rule behind the calls is not given here.

Columns and labels:
Egl nine homolog 1 = Egl nine homolog 1 (Homo sapiens, UniProt Q9GZT9); experiment: Inhibition of PHD2 (181 to 426 residue) (unknown origin) measured by fluorescence polarization assay
[1] = Toxicity in ICR mouse assessed as kidney edema at 15 to 100 mg/kg, po administered every other day and measured after 14 days by H and E staining method; format: organism-based; settings: in vivo, 336 h, dose 15-100 mg/kg, time 14 day
[2] = Toxicity in ICR mouse assessed as heart edema at 15 to 100 mg/kg, po administered every other day and measured after 14 days by H and E staining method; format: organism-based; settings: in vivo, 336 h, dose 15-100 mg/kg, time 14 day
Mus musculus [3] = experiment: Induction of reticulocytes production in po dosed C57BL/6 mouse measured at day 3 and 3 days post-dose; format: functional, organism-based; settings: dose 10-50 mg/kg, time 3.0 day, DDE = dose-dependent effect
[4] = Toxicity in female ICR mouse assessed as change in lung to body weight ratio at 15 to 100 mg/kg, po administered every other day and measured after 14 days; format: organism-based; settings: in vivo, 336 h, dose 15-100 mg/kg, time 14 day
[5] = Toxicity in male ICR mouse assessed as change in lung to body weight ratio at 15 to 100 mg/kg, po administered every other day and measured after 14 days; format: organism-based; settings: in vivo, 336 h, dose 15-100 mg/kg, time 14 day
[6] = Toxicity in female ICR mouse assessed as change in spleen to body weight ratio at 15 to 100 mg/kg, po administered every other day and measured after 14 days; format: organism-based; settings: in vivo, 336 h, dose 15-100 mg/kg, time 14 day
[7] = Toxicity in female ICR mouse assessed as change in heart to body weight ratio at 15 to 100 mg/kg, po administered every other day and measured after 14 days; format: organism-based; settings: in vivo, 336 h, dose 15-100 mg/kg, time 14 day
[8] = Renal toxicity in ICR mouse assessed as effect on […] level at 15 to 100 mg/kg, po administered every other day and measured after 14 days; format: organism-based; settings: in vivo, 336 h, dose 15-100 mg/kg, time 14 day
Mus musculus [9] = experiment: Induction of reticulocytes production in C57BL/6 mouse at 20 mg/kg, po measured at day 3 and 3 days post-dose; format: functional, organism-based; settings: time 3.0 day
[10] = Toxicity in male ICR mouse assessed as change in heart to body weight ratio at 15 to 100 mg/kg, po administered every other day and measured after 14 days; format: organism-based; settings: in vivo, 336 h, dose 15-100 mg/kg, time 14 day
[11] = Hepatotoxicity in ICR mouse assessed as effect on ALT level at 15 to 100 mg/kg, po administered every other day and measured after 14 days; format: toxicity, organism-based; settings: in vivo, 336 h, dose 15-100 mg/kg, time 14 day
[12] = Toxicity in ICR mouse assessed as liver edema at 15 to 100 mg/kg, po administered every other day and measured after 14 days by H and E staining method; format: organism-based; settings: in vivo, 336 h, dose 15-100 mg/kg, time 14 day
[13] = Toxicity in ICR mouse assessed as lung edema at 15 to 100 mg/kg, po administered every other day and measured after 14 days by H and E staining method; format: organism-based; settings: in vivo, 336 h, dose 15-100 mg/kg, time 14 day
[14] = Renal toxicity in ICR mouse assessed as effect on BUN level at 15 to 100 mg/kg, po administered every other day and measured after 14 days; format: organism-based; settings: in vivo, 336 h, dose 15-100 mg/kg, time 14 day
[15] = Toxicity in ICR mouse assessed as spleen edema at 15 to 100 mg/kg, po administered every other day and measured after 14 days by H and E staining method; format: organism-based; settings: in vivo, 336 h, dose 15-100 mg/kg, time 14 day
[16] = Hepatotoxicity in ICR mouse assessed as effect on […] level at 15 to 100 mg/kg, po administered every other day and measured after 14 days; format: toxicity, organism-based; settings: in vivo, 336 h, dose 15-100 mg/kg, time 14 day
[17] = Cytotoxicity against human Hep3B cells assessed as cell viability at 100 uM incubated for 24 hrs by CCK8 assay relative to control; format: toxicity, cell-based, Hep 3B2; settings: read-out: Activity
[18] = Toxicity in male ICR mouse assessed as change in kidney to body weight ratio at 15 to 100 mg/kg, po administered every other day and measured after 14 days; format: organism-based; settings: in vivo, 336 h, dose 15-100 mg/kg, time 14 day
[19] = Toxicity in female ICR mouse assessed as change in liver to body weight ratio at 15 to 100 mg/kg, po administered every other day and measured after 14 days; format: organism-based; settings: in vivo, 336 h, dose 15-100 mg/kg, time 14 day
[20] = Toxicity in male ICR mouse assessed as change in spleen to body weight ratio at 15 to 100 mg/kg, po administered every other day and measured after 14 days; format: organism-based; settings: in vivo, 336 h, dose 15-100 mg/kg, time 14 day
[21] = Toxicity in female ICR mouse assessed as change in kidney to body weight ratio at 15 to 100 mg/kg, po administered every other day and measured after 14 days; format: organism-based; settings: in vivo, 336 h, dose 15-100 mg/kg, time 14 day
[22] = Toxicity in male ICR mouse assessed as change in liver to body weight ratio at 15 to 100 mg/kg, po administered every other day and measured after 14 days; format: organism-based; settings: in vivo, 336 h, dose 15-100 mg/kg, time 14 day
[23] = Toxicity in ICR mouse assessed as increase in body weight at 15 to 100 mg/kg, po administered every other day and measured upto 14 days; format: organism-based; settings: in vivo, 336 h, dose 15-100 mg/kg, time < 14 day
Hep3B = experiment: Induction of HIF-alpha stabilization in human Hep3B cells assessed as fold increase in EPO transcriptional activity at 5 uM incubated for 12 hrs by qRT-PCR analysis; format: cell-based

Egl nine homolog 1, sequence (Q9GZT9 whole entry): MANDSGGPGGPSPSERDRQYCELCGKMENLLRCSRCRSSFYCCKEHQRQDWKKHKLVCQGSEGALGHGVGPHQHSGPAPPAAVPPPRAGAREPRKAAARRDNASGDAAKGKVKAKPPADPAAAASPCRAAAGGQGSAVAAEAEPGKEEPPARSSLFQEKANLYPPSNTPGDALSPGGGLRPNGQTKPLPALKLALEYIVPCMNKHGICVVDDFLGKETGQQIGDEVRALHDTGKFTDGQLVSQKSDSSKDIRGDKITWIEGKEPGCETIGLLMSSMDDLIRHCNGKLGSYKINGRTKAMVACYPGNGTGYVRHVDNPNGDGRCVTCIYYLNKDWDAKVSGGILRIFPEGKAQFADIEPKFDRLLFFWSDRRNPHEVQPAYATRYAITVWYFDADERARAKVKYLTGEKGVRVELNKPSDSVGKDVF

Compound: O=C(O)CNC(=O)c1ncc(C2=CCN(S(=O)(=O)Cc3ccc(OC(F)(F)F)cc3)CC2)cc1O
- Activity [1]: Non-Toxic
- Activity [2]: Non-Toxic
- Activity (Mus musculus [3]): Dde
- Activity [4]: Non-Toxic
- IC50 (Egl nine homolog 1): 6.55 nM
- Activity [5]: Non-Toxic
- Activity [6]: Non-Toxic
- Activity [7]: Non-Toxic
- Activity [8]: Non-Toxic
- Activity (Mus musculus [9]): Active
- Activity [10]: Non-Toxic
- Activity [11]: Non-Toxic
- Activity [12]: Non-Toxic
- Activity [13]: Non-Toxic
- Activity [14]: Non-Toxic
- Activity [15]: Non-Toxic
- Activity [16]: Non-Toxic
- viability at 24 h, 100 µM [17]: > 80%
- Activity [18]: Non-Toxic
- Activity [19]: Non-Toxic
- Activity [20]: Non-Toxic
- Activity [21]: Non-Toxic
- Activity [22]: Non-Toxic
- Activity [23]: Non-Toxic

Compound: O=C(O)CNC(=O)c1ncc(C2=CCN(S(=O)(=O)c3ccc(C(F)(F)F)cc3)CC2)cc1O
- IC50 (Egl nine homolog 1): 72.3 nM

Compound: O=C(O)CNC(=O)c1ncc(C2=CCN(S(=O)(=O)c3ccccc3)CC2)cc1O
- IC50 (Egl nine homolog 1): 132 nM

Compound: O=C(O)CNC(=O)c1ncc(C2=CCN(S(=O)(=O)Cc3ccccc3)CC2)cc1O
- IC50 (Egl nine homolog 1): 18.2 nM

Compound: CC(C)(C)c1ccc(S(=O)(=O)N2CC=C(c3cnc(C(=O)NCC(=O)O)c(O)c3)CC2)cc1
- IC50 (Egl nine homolog 1): 796 nM

Compound: O=C(O)CNC(=O)c1ncc(C2=CCN(Cc3ccc(Cl)cc3)CC2)cc1O
- IC50 (Egl nine homolog 1): 73.9 nM

Compound: O=C(O)CNC(=O)c1ncc(C2CCN(Cc3ccc(Cl)cc3)CC2)cc1O
- IC50 (Egl nine homolog 1): 588 nM

Compound: O=C(O)CNC(=O)c1ncc(C2=CCN(S(=O)(=O)Cc3ccc(C(F)(F)F)cc3)CC2)cc1O
- IC50 (Egl nine homolog 1): 7.97 nM
- Activity (Mus musculus [9]): Active
- viability at 24 h, 100 µM [17]: > 80%

Compound: O=C(O)CNC(=O)c1ncc(C2=CCN(S(=O)(=O)c3cccnc3)CC2)cc1O
- IC50 (Egl nine homolog 1): 51.2 nM

Compound: O=C(O)CNC(=O)c1ncc(C2=CCN(S(=O)(=O)c3ccc(OC(F)(F)F)cc3)CC2)cc1O
- IC50 (Egl nine homolog 1): 50.9 nM

Compound: O=C(O)CNC(=O)c1ncc(C2=CCN(S(=O)(=O)c3cccc4ccccc34)CC2)cc1O
- IC50 (Egl nine homolog 1): 22.4 nM

Compound: O=C(O)CNC(=O)c1ncc(C2=CCN(S(=O)(=O)c3ccc4ccccc4c3)CC2)cc1O
- IC50 (Egl nine homolog 1): 97.4 nM

Now from value to compound, other results behind:

- IC50 (Egl nine homolog 1): 46.5 nM
Compound: O=C(O)CNC(=O)c1ncc(C2=CCN(S(=O)(=O)c3cccs3)CC2)cc1O

- IC50 (Egl nine homolog 1): 141 nM
Compound: O=C(O)CNC(=O)c1ncc(C2=CCN(S(=O)(=O)c3cccc(F)c3)CC2)cc1O

- IC50 (Egl nine homolog 1): 27 nM
Compound: O=C(O)CNC(=O)c1ncc(C2=CCN(S(=O)(=O)c3ccc(Cl)cc3)CC2)cc1O

- IC50 (Egl nine homolog 1): 25 nM
Compound: O=C(O)CNC(=O)c1ncc(C2=CCN(C(=O)c3ccc(Cl)cc3)CC2)cc1O

- IC50 (Egl nine homolog 1): 45.3 nM
Compound: Cc1ccc(S(=O)(=O)N2CC=C(c3cnc(C(=O)NCC(=O)O)c(O)c3)CC2)cc1

- IC50 (Egl nine homolog 1): 82.8 nM
Compound: O=C(O)CNC(=O)c1ncc(C2=CCN(S(=O)(=O)c3ccccc3F)CC2)cc1O

- IC50 (Egl nine homolog 1): 27 nM
Compound: O=C(O)CNC(=O)c1ncc(C2=CCN(C(=O)Nc3ccc(Cl)cc3)CC2)cc1O

- IC50 (Egl nine homolog 1): 6.31 nM
Compound: O=C(O)CNC(=O)c1ncc(C2=CCN(S(=O)(=O)Cc3ccc(F)cc3)CC2)cc1O
- Activity (Mus musculus [9]): Active
- viability at 24 h, 100 µM [17]: > 80%

- IC50 (Egl nine homolog 1): 20.7 nM
Compound: N#Cc1ccc(S(=O)(=O)N2CC=C(c3cnc(C(=O)NCC(=O)O)c(O)c3)CC2)cc1

- IC50 (Egl nine homolog 1): 43.5 nM
Compound: O=C(O)CNC(=O)c1ncc(C2=CCN(S(=O)(=O)c3ccc(F)cc3)CC2)cc1O

- IC50 (Egl nine homolog 1): 29.7 nM
Compound: O=C(O)CNC(=O)c1ncc(C2=CCN(S(=O)(=O)c3ccc(Br)cc3)CC2)cc1O

- IC50 (Egl nine homolog 1): 6.14 nM
Compound: O=C(O)CNC(=O)c1ncc(C2=CCN(S(=O)(=O)Cc3ccc(Cl)cc3)CC2)cc1O
- Activity (Mus musculus [9]): Active
- viability at 24 h, 100 µM [17]: > 80%

- IC50 (Egl nine homolog 1): 6.95 nM
Compound: O=C(O)CNC(=O)c1ncc(C2=CCN(S(=O)(=O)Cc3ccc(Br)cc3)CC2)cc1O
- Activity (Mus musculus [9]): Active
- FC (Hep3B): 2
- viability at 24 h, 100 µM [17]: > 80%
